target: T1, enképhalinase (Rattus norvegicus, UniProt P07861); assay: Enkephalinase assay and determination of the effect of inhibitors (hydrolysis of tritiated leucine-enkephalin); format: biochemical; settings: membrane fraction of rat striatum; 20 nanomoles tritiated leucine-enkephalin, 1 mM puromycin, TRIS buffer, 15 min at 25°C; read-out: Inhibition de l'enképhalinase CI 50
T1 construct: L'activité de l'enképhalinase est déterminée dans une fraction membranaire de striatum de rat; from tissue; host or cells: rat striatum, particulate (membrane) fraction
T1 sequence (P07861 1-750): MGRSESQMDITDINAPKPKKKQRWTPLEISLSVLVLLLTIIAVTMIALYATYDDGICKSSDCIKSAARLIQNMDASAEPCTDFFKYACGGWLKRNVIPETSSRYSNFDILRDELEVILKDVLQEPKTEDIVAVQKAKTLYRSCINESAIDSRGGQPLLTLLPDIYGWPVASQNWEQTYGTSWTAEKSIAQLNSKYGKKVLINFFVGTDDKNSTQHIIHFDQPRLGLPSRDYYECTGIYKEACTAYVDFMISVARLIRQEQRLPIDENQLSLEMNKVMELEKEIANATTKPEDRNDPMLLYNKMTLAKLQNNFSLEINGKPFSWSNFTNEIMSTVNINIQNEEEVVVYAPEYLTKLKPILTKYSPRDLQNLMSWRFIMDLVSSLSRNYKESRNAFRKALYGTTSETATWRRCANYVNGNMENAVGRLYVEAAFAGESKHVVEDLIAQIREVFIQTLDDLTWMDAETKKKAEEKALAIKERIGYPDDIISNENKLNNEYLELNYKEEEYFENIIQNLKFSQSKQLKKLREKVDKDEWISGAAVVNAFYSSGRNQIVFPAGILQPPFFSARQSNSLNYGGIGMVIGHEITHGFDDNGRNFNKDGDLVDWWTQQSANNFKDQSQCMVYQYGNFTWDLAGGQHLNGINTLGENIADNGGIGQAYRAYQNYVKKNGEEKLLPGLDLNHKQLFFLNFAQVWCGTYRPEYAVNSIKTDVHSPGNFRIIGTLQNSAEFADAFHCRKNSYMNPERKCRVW
Procedure: 1) Dosage de l'enképhalinase et détermination de l'effet des inhibiteurs.
L'activité de l'enképhalinase est déterminée dans une fraction membranaire de striatum de rat.
Les striatum sont prélevés sur glace et homogénéisés en tampon TRIS 0.05M pH 7,4 (20 fois le volume). Après une première centrifugation à 1000 g, la fraction particulaire est obtenue à la suite de deux centrifugations de 10 minutes à 20 000 g. Le culot est ensuite mis en suspension dans un tampon TRIS et conservé à 4°C. Le dosage des protéines est effectué selon la méthode au bleu de Comassie.
Après une préincubation de 15 minutes à 25°C, une aliquote de protéines est incubée pendant 15 minutes à 25°C en présence de 20 nanomoles de leucine-enképhaline tritiée (sur le premier acide aminé) préalablement purifiée, d'1 mM de puromycine et du produit à tester en tampon TRIS. La réaction d'hydrolyse est stoppée par addition d'acide chlorhydrique 0,2N et l'incubat subit une déprotéinisation par la chaleur (15 minutes à 95°C).
Les métabolites tritiés obtenus par hydrolyse sont séparés de l'enképhaline par chromatographie sur colonne de porapak Q : ils sont élués avec du tampon TRIS tandis que l'enképhaline est retenue sur la colonne et recueillie ensuite en phase éthanolique.
L'activité des différents produits est exprimée en concentrations inhibitrices 50 %.

Going from `O=C(NCCc1ccccc1)C(CS)Cc1ccccc1` (stereo not drawn) [Exemple 8, α -(mercaptométhyl) N-(2-phényl éthyl) benzène propanamide] to “Chlorhydrate d'α-(mercaptométhyl) N-/(pyridin-3-yl) méthyl/ benzène propanamide [Exemple 22]”, the IC50 falls from 1000 nM to 80 nM (12-fold).

`O=C(NCc1ccccn1)C(CS)Cc1ccccc1` (stereo not drawn) [Exemple 26, Chlorhydrate d'α-(mercaptométhyl) N-/(Pyridin-2-yl) méthyl/benzène propanamide] and `O=C(NC1CCCCC1)C(CS)Cc1ccccc1` (stereo not drawn) [Exemple 2, N-cyclohexyl α-(mercaptométhyl) benzène propanamide] are the same in IC50: 100 nM for the first, 100 nM for the second.

With `O=C(NCc1ccncc1)C(CS)Cc1ccccc1` (stereo not drawn) [Exemple 24, Chlorhydrate d'α-(mercaptométhyl) N-/(pyridin-4-yl) méthyl/ benzène propanamide] the IC50 was 80 nM.

Reference: patent EP0159254A1, “Derivatives of omega-mercaptopropanamide and their salts, their preparation, their use as medicines and compositions containing them” (ROUSSEL-UCLAF, priority 1984, dated 1985)
